Laboratory results published in ChEMBL document CHEMBL5244257, “The role of imidazole and benzimidazole heterocycles in Chagas disease: A review” (Eur J Med Chem, 2020).
Values belong to the compound of their own block, whether it stands above or below them.

Key:
Trypanosoma cruzi [1] = experiment: Antitrypanosomal activity against Trypanosoma cruzi epimastigotes; assay type: functional, organism-based
Trypanosoma cruzi [2] = experiment: Antitrypanosomal activity against Trypanosoma cruzi Tulahuen strain trypomastigotes infected in human MRC5 cells measured after 7 days; assay type: functional, organism-based; conditions: MRC5, 168 h
Cruzipain [3] = target: T1, Cruzipain (Trypanosoma cruzi, UniProt P25779); experiment: Inhibition of Trypanosoma cruzi Cruzain
Trypanosoma cruzi [4] = experiment: Inhibition of Trypanosoma cruzi TIM at 100 uM relative to control
Trypanosoma cruzi [5] = experiment: Antiparasitic activity against Trypanosoma cruzi Tulahuen strain amastigotes; assay type: functional, organism-based
Trypanosoma cruzi [6] = experiment: Antitrypanosomal activity against Trypanosoma cruzi Tulahuen LacZ amastigotes infected in human HFF-1 cells incubated for 120 hrs; assay type: functional, organism-based; conditions: HFF-1, 120 h
Cruzipain [7] = target: T1, Cruzipain; experiment: Inhibition of Trypanosoma cruzi Cruzain using Z-Phe-Arg-AMC as flurogenic substrate
Trypanosoma cruzi [8] = experiment: Antitrypanosomal activity against Trypanosoma cruzi trypomastigotes; assay type: functional, organism-based
Trypanosoma cruzi [9] = experiment: Antitrypanosomal activity against of Trypanosoma cruzi amastigotes; assay type: functional, organism-based
[10] = Inhibition of Trypanosoma cruzi TIM
Trypanosoma cruzi [11] = experiment: Antitrypanosomal activity against Trypanosoma cruzi Y strain amastigotes incubated for 24 hrs by microscopy analysis; assay type: functional, organism-based
Trypanosoma cruzi [12] = experiment: Trypanocidal activity against Trypanosoma cruzi trypomastigotes; assay type: functional, organism-based
Trypanosoma cruzi [13] = experiment: Antitrypanosomal activity against Trypanosoma cruzi IRHOD/CO/2008/SN3 epimastigotes; assay type: functional, organism-based
[14] = Inhibition of Trypanosoma cruzi epimastigotes Fe-SOD by Bradford method
Trypanosoma cruzi [15] = experiment: Antitrypanosomal activity against of Trypanosoma cruzi Tulahuen strain amastigotes infected in mouse 3T3 cells by alamar blue staining based analysis; assay type: functional, organism-based; conditions: NIH3T3
Cruzipain [16] = target: T1, Cruzipain; experiment: Inhibition of Trypanosoma cruzi Tulahuen 2 Cruzain using Z-Phe-Arg-AMC as flurogenic substrate at 100 uM by spectrophotometry based analysis relative to control
Trypanosoma cruzi [17] = experiment: Antitrypanosomal activity against Trypanosoma cruzi Tulahuen 2 epimastigotes measured after 5 days; assay type: functional, organism-based; conditions: Tulahuen 2, 120 h
Trypanosoma cruzi [18] = experiment: Inhibition of Trypanosoma cruzi assessed as inhibition of parasite growth at 100 uM relative to control; assay type: functional
Trypanosoma cruzi [19] = experiment: Antitrypanosomal activity against Trypanosoma cruzi Y strain trypomastigotes infected in Swiss albino mouse incubated for 24 hrs; assay type: functional, organism-based
Trypanosoma cruzi [20] = experiment: Antitrypanosomal activity against of Trypanosoma cruzi Y trypomastigotes measured after 48 hrs by giemsa staining based microscopic analysis; assay type: functional, organism-based
Trypanosoma cruzi [21] = experiment: Antitrypanosomal activity against bloodstream form of Trypanosoma cruzi Y […] measured after 24 hrs by giemsa staining based microscopic analysis; assay type: functional, organism-based

T1 sequence (P25779 whole entry): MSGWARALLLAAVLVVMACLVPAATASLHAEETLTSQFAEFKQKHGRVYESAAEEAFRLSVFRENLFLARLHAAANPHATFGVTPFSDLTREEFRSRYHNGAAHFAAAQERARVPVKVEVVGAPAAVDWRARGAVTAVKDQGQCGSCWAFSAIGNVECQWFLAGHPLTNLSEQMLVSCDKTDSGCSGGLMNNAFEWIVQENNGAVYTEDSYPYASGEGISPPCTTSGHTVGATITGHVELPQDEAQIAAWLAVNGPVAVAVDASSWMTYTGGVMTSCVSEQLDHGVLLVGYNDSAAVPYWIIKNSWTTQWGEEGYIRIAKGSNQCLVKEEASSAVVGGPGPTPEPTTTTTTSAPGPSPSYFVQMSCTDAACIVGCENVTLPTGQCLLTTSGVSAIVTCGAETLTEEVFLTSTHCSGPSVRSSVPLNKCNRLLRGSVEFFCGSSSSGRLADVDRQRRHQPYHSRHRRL

IC50 (Trypanosoma cruzi [1]): 10700 nM
SMILES: COc1ccc(O)c(-c2nc(C)c(C)[nH]2)c1

SMILES: Cc1ccc(-c2c[nH]c(NC(=O)N3CCN(c4ccc(C(F)(F)F)cc4[N+](=O)[O-])CC3)n2)cc1
IC50 (Trypanosoma cruzi [2]): 2200 nM

IC50 (Cruzipain [3]): 610 nM
SMILES: Cc1ccc2[nH]c(CCNC(=O)COc3ccc4ccccc4c3Br)nc2c1

IC50 (Cruzipain [3]): 2000 nM
IC50 (Trypanosoma cruzi [1]): 64000 nM
SMILES: Cc1ccc(OCCn2c(CCNC(=O)C3CCCCC3)nc3ccccc32)cc1

SMILES: Brc1ccc(-c2c[nH]c(-c3ccccn3)n2)cc1
IC50 (Trypanosoma cruzi [2]): 1200 nM

IC50 (Cruzipain [3]): 590 nM
SMILES: O=C(COc1ccc2ccccc2c1Br)NCCc1nc2cc(Cl)ccc2[nH]1

inhibition (Trypanosoma cruzi [4]): 60%
SMILES: Cn1c(OC(N)=O)nc2cc(Oc3cccc4ccccc34)c(Cl)cc21

IC50 (Trypanosoma cruzi [5]): 0.8 nM
SMILES: O=C(N[C@@H](Cn1ccnc1)c1ccc(-c2ccc(F)cc2)cc1F)c1ccc(-c2nnc(-c3ccccc3)o2)cc1

IC50 (Trypanosoma cruzi [6]): 1100 nM
IC50 (Cruzipain [7]): 1000 nM
SMILES: Cc1cccc(OCCNC(=O)n2ccnc2)c1

IC50 (Trypanosoma cruzi [8]): 23900 nM
SMILES: Cn1c([N+](=O)[O-])cnc1-c1c(-c2ccccc2)nc(-c2ccc(Br)cc2)n1O

IC50 (Cruzipain [3]): 1600 nM
SMILES: Cc1ccccc1OCC(=O)NCCc1nc2ccccc2[nH]1

IC50 (Trypanosoma cruzi [1]): 440 nM
SMILES: COc1ccc(-n2c[n+](-c3ccc(OC)cc3)c(Cc3ccccc3)c2-c2ccc(C)cc2)cc1

IC50 (Trypanosoma cruzi [9]): 960 nM
SMILES: CN(C)c1ccc(-c2nc(-c3ccccc3)c(-c3ccccc3)[nH]2)cc1

IC50 (Trypanosoma cruzi [1]): 540 nM
SMILES: Oc1ccc(-n2c[n+](-c3ccc4ccccc4c3)c(Cc3ccccc3)c2-c2ccc(Cl)cc2)cc1

SMILES: CSc1nc2cc(C(=O)Nc3ncc([N+](=O)[O-])s3)c(Cl)cc2n1C
IC50 [10]: 100000 nM

IC50 (Trypanosoma cruzi [11]): 900 nM
IC50 (Trypanosoma cruzi [8]): 11000 nM
SMILES: O=C(N[C@@H](Cn1ccnc1)c1ccc(Cl)cc1Cl)c1ccc(-c2nnc(-c3ccccc3)o2)cc1

SMILES: CCOC(=O)Cc1[nH]c(-c2ccccc2)nc1-c1ccc(C)cc1
IC50 (Trypanosoma cruzi [12]): 51100 nM

IC50 (Trypanosoma cruzi [13]): 8500 nM
SMILES: Oc1cccc2c(NCCc3c[nH]cn3)nnc(Cl)c12
IC50 [14]: 27000 nM

IC50 (Trypanosoma cruzi [1]): 1140 nM
SMILES: c1ccc2c(c1)cnn1c[n+](C3CCCCC3)c(NC3CCCCC3)c21

IC50 (Trypanosoma cruzi [1]): 1020 nM
SMILES: c1ccc2c(c1)ccn1c[n+](C3CCCCC3)c(NC3CCCCC3)c21

IC50 (Trypanosoma cruzi [15]): 20 nM
SMILES: c1ccc(-c2ccc(Cn3cncc3CNc3ccc(-c4nc5ccccc5s4)c(-c4ccccc4)c3)cc2)cc1

IC50 (Cruzipain [16]): 55000 nM
IC50 (Trypanosoma cruzi [17]): 13300 nM
SMILES: CCCCn1c(-c2ccc(Br)cc2)nc2ccccc21

IC50 (Trypanosoma cruzi [1]): 1100 nM
SMILES: CC(C)c1cccc(C(C)C)c1-n1cc[n+](-c2c(C(C)C)cccc2C(C)C)c1

SMILES: CCOC(=O)c1nc2ccc([N+](=O)[O-])cc2n1OC(=O)OC(C)(C)C
inhibition at 100 µM (Trypanosoma cruzi [18]): 61%

SMILES: Cn1cnc([N+](=O)[O-])c1-n1cc(C2CC2)nn1
IC50 (Trypanosoma cruzi [19]): 5400 nM

SMILES: C=C(c1ccccc1OCc1cccc(Cl)c1)n1ccnc1 [CROCONAZOLE]
IC50 (Trypanosoma cruzi [20]): 16000 nM
IC50 (Trypanosoma cruzi [21]): 24000 nM

IC50 (Trypanosoma cruzi [1]): 33000 nM
SMILES: Cn1c([N+](=O)[O-])cnc1C1=NOC2CCCCC12 (stereo unspecified)

SMILES: c1ccc(-c2nc(-c3cccc4ccccc34)c[nH]2)cc1
IC50 (Trypanosoma cruzi [12]): 35500 nM

IC50 (Trypanosoma cruzi [1]): 2000 nM
SMILES: Cc1cc(C)c(-n2cc[n+](-c3c(C)cc(C)cc3C)c2)c(C)c1

SMILES: Sc1nc2cc(Cl)ccc2[nH]1
IC50 (Trypanosoma cruzi [12]): 320000 nM
